According to the NIST ThermoML archive (doi:10.1016/j.jct.2018.02.001):

Tests used:
[1] = 101.33 kPa, Liquid, Vibrating tube method
[2] = mn = molality of the nth substance listed, in mol/kg; conditions: 100 kPa, Liquid, Vibrating tube method

CCCCCCCC[n+]1ccn(CCCC)c1.[Br-] [1-butyl-3-octyl-1H-imidazolium bromide]
[1]
Conditions | mass density [kg/m3]
293.15 K | 1123.09
298.15 K | 1119.72
303.15 K | 1116.27
308.15 K | 1112.79
313.15 K | 1109.25
318.15 K | 1105.74
323.15 K | 1102.23

CCCCCCCC[n+]1ccn(CCCC)c1.[Br-] [1-butyl-3-octyl-1H-imidazolium bromide] + O
mass density [kg/m3], [2]
Conditions | m1 = 0.0055 | m1 = 0.01 | m1 = 0.015 | m1 = 0.0216 | m1 = 0.0285 | m1 = 0.0346 | m1 = 0.0412 | m1 = 0.0498
293.15 K | 998.38 | 998.55 | 998.75 | 999.02 | 999.32 | 999.58 | 999.85 | 1000.22
298.15 K | 997.16 | 997.36 | 997.53 | 997.77 | 998.04 | 998.28 | 998.54 | 998.88
303.15 K | 995.68 | 995.77 | 995.96 | 996.2 | 996.48 | 996.71 | 996.97 | 997.31
308.15 K | 994.05 | 994.08 | 994.1 | 994.32 | 994.61 | 994.83 | 995.08 | 995.4

CCCCCC[n+]1ccn(CC)c1.[Br-] [1-ethyl-3-hexyl-1H-imidazolium bromide]
[1]
Conditions | mass density [kg/m3]
293.15 K | 1197.06
298.15 K | 1193.59
303.15 K | 1190.1
308.15 K | 1186.58
313.15 K | 1183.02
318.15 K | 1179.46
323.15 K | 1175.88

CCCCCC[n+]1ccn(CC)c1.[Br-] [1-ethyl-3-hexyl-1H-imidazolium bromide] + O
mass density [kg/m3], [2]
Conditions | m1 = 0.0092 | m1 = 0.012 | m1 = 0.0168 | m1 = 0.02 | m1 = 0.0248 | m1 = 0.0295 | m1 = 0.0358 | m1 = 0.0432 | m1 = 0.0495
293.15 K | 998.59 | 998.73 | 998.92 | 999.06 | 999.26 | 999.47 | 999.75 | 1000.07 | 1000.35
298.15 K | 997.35 | 997.48 | 997.66 | 997.79 | 998 | 998.2 | 998.48 | 998.8 | 999.08
303.15 K | 995.82 | 995.93 | 996.11 | 996.24 | 996.43 | 996.64 | 996.9 | 997.21 | 997.48
308.15 K | 994.05 | 994.09 | 994.21 | 994.33 | 994.51 | 994.7 | 994.96 | 995.26 | 995.51

CCCCCCCC[n+]1ccn(CC)c1.[Br-] [1-ethyl-3-octyl-1H-imidazolium bromide]
[1]
Conditions | mass density [kg/m3]
293.15 K | 1148.89
298.15 K | 1145.43
303.15 K | 1141.74
308.15 K | 1138.13
313.15 K | 1134.69
318.15 K | 1131.07
323.15 K | 1127.5

CCCCCCCC[n+]1ccn(CC)c1.[Br-] [1-ethyl-3-octyl-1H-imidazolium bromide] + O
mass density [kg/m3], [2]
Conditions | 293.15 K | 298.15 K | 303.15 K | 308.15 K
m1 = 0.0128 | 998.68 | 997.48 | 995.95 | 994.18
m1 = 0.0143 | 998.75 | 997.55 | 996.03 | 994.25
m1 = 0.0149 | 998.78 | 997.58 | 996.06 | 994.27
m1 = 0.0171 | 998.87 | 997.68 | 996.14 | 994.36
m1 = 0.0206 | 999.02 | 997.83 | 996.29 | 994.5
m1 = 0.0216 | 999.07 | 997.87 | 996.33 | 994.55
m1 = 0.026 | 999.25 | 998.06 | 996.51 | 994.71
m1 = 0.0313 | 999.47 | 998.28 | 996.73 | 994.91
m1 = 0.0355 | 999.65 | 998.45 | 996.91 | 995.08
m1 = 0.0377 | 999.74 | 998.54 | 997 | 995.16
m1 = 0.0436 | 999.99 | 998.77 | 997.24 | 995.39

CCCCCCCCCCCC[n+]1ccn(CC)c1.[Br-] [3-dodecyl-1-ethyl-1H-imidazolium bromide]
[1]
Conditions | mass density [kg/m3]
293.15 K | 1084.31
298.15 K | 1080.97
303.15 K | 1077.53
308.15 K | 1074.03
313.15 K | 1070.48
318.15 K | 1066.96
323.15 K | 1063.43

CCCCCCCCCCCC[n+]1ccn(CC)c1.[Br-] [3-dodecyl-1-ethyl-1H-imidazolium bromide] + O
mass density [kg/m3], [2]
Conditions | m1 = 0.0061 | m1 = 0.0074 | m1 = 0.0109 | m1 = 0.015 | m1 = 0.021 | m1 = 0.0257 | m1 = 0.0362 | m1 = 0.0521
293.15 K | 998.38 | 998.42 | 998.52 | 998.64 | 998.81 | 998.94 | 999.24 | 999.68
298.15 K | 997.16 | 997.19 | 997.27 | 997.38 | 997.53 | 997.65 | 997.91 | 998.31
303.15 K | 995.65 | 995.68 | 995.73 | 995.83 | 995.99 | 996.12 | 996.37 | 996.72
